Results as given in US20250282785A1, “PYRROLIDINONE DERIVATIVES AS INHIBITORS OF NF KAPPA B INDUCING KINASE” (priority 2022, published 2025).

Columns and labels:
[1] = target: Recombinant Human NF-Kappab-Inducing Kinase (NIK/MAP3K14) (Homo sapiens, UniProt Q99558); test: Inhibition of auto-phosphorylation of recombinant human NIK/MAP3K14 (AlphaScreen); type: biochemical; conditions: NIK/MAP3K14 auto-phosphorylation, 5 microM ATP, 1 nM enzyme, 2 h at 25° C.; average of values; read-out: Assay 1 IC50
Chain of Recombinant Human NF-Kappab-Inducing Kinase (NIK/MAP3K14) (Q99558 whole entry): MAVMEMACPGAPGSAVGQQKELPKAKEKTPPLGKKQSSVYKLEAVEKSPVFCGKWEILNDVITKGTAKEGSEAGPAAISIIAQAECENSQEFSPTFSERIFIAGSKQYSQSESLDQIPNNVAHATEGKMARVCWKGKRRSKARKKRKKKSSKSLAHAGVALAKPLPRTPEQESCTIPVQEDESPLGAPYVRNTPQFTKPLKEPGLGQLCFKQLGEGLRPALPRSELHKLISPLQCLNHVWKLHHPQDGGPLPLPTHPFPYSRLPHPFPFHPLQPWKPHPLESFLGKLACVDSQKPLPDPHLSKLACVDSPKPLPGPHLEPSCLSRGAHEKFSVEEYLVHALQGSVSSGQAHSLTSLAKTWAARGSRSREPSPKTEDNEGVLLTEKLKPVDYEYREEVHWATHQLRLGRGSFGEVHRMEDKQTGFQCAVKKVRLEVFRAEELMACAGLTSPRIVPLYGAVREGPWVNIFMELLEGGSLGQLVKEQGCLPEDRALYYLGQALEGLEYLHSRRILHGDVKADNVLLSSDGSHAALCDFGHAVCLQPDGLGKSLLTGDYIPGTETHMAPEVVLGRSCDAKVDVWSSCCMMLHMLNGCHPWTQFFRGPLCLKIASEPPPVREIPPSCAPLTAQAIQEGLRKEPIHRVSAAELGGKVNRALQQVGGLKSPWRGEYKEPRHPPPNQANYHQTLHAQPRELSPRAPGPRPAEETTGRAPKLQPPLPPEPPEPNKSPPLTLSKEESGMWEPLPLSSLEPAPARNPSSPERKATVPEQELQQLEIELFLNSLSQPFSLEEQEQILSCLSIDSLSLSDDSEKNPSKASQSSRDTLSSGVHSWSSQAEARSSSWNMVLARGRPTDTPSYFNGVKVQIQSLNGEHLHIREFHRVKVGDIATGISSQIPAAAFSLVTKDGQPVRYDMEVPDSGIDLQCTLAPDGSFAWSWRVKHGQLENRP
Protocol: Biological Assay 1: Inhibition of Auto-Phosphorylation of Recombinant Human NF-Kappab-Inducing Kinase (NIK/MAP3K14) Activity (AlphaScreen®)
NIK/MAP3K14 auto-phosphorylation activity was measured using the AlphaScreen® ((αscreen) format (Perkin ElmeR). All compounds tested were dissolved in dimethyl sulfoxide (DMSO) and further dilutions were made in assay buffer. Final DMSO concentration was 0.7% (v/v) in assays. Assay buffer was 50 mM Tris pH 7.5 containing 1 mM EGTA (ethylene glycol tetraacetic acid), 1 mM DTT (dithiothreitol), 0.1 mM Na3VO4, 5 mM MgCl2, 0.01% Tween® 20. Assays were carried out in 384 well Proxiplates (Perkin ElmeR). Incubations consisted of compound, 5 microM Adenosine-5′-triphosphate (ATP), and 1 nM NIK/MAP3K14. Incubations were initiated by addition of GST-tagged NIK/MAP3K14 enzyme, carried out for 2 h at 25° C. and terminated by addition of stop buffer containing anti-phospho-IKK Ser176/180 antibody. Protein A Acceptor and Glutathione-donor beads were added before reading using an EnVision® Multilabel Plate Reader (Perkin ElmeR). Signal obtained in the wells was normalized using high (full enzyme activity, 0.7% DMSO) and low controls (no enzyme activity, 0.7% DMSO, no ATP). IC50's were determined by fitting a sigmoidal curve to % inhibition of control versus Log10 compound concentration.

[2] = test system: p-IKKα levels in L363 (NIK translocated multiple myeloma) cells; test: Effect of compounds on p-IKKα levels in L363 cells (AlphaLISA SureFire Ultra); type: cell-based; conditions: Homo sapiens, L-363; L363 cells, BAFF stimulated, MG132, 6 h; average of values; read-out: Assay 2 IC50
Protocol: Biological Assay 2: Effect of Compounds on p-IKKα Levels in L363 (NIK Translocated Multiple Myeloma) Cells
All compounds tested were dissolved and serially diluted in DMSO, 1:3 dilution for 11 points in an Echo compatible plate. 100% DMSO is added to columns 12 and 24 of the plate to serve as high and low signal controls. This compound plate was used to spot 20 nl of compound or DMSO into a Greiner 384 well TC plate (781080). Final DMSO concentration was […] (v/v) in cell assays. Human L363 cells (ATCC) were cultured in RPMI 1640 medium supplemented with GlutaMax, non-essential amino acids, sodium pyruvate and 10% fetal bovine serum. Cells were routinely maintained at densities of 0.2×10^6 cells per ml −2×10^6 cells per ml at 37° C. in a humidified 5% CO2 atmosphere incubator. Cells were passaged twice a week splitting back to obtain the low density. The day before the assay, cells were washed twice in HBSS, resuspended in DMEM+0.5% IgG and protease free BSA (Jackson Immuno Research Laboratories), +/−250 ng/ml recombinant human B-cell activating factor (BAFF/BLyS/TNFSF13B) and incubated overnight at 37° C. in a humidified 5% CO2 atmosphere (bulk stimulation with or without BAFF). The next day, cell concentration was adjusted to 1×10^7 cells/ml in DMEM+/−250 ng/ml BAFF+/−10 uM MG132 and plated at 10 ul/well into compound or DMSO spotted 384 well TC plates. Seeded cells were incubated at 37° C. in a humidified 5% CO2 atmosphere for 6 h. After 6 h, plates were removed from the incubator and cell lysis was achieved by the addition of 2.5 μl 5× lysis buffer containing protease and phosphatase inhibitors, followed by shaking on a plate shaker at room temperature for 15 min. At the end of this incubation, lysed cells were sequentially treated and incubated with acceptor and donor bead mixes according to the manufacturer's protocol for a 1 plate/2-incubation suspension cell assay (AlphaLISA SureFire Ultra p-IKKα (Ser 176/180) Assay Kit (Perkin ElmeR). Plates were read using an EnVision® Multilabel Plate Reader (Perkin ElmeR). Within an experiment, a concentration response curve for each compound was run in duplicate. Signal obtained in the test wells was normalized using high signal (BAFF stimulated cells, DMSO, MG132) and low signal (unstimulated cells, DMSO) controls. To determine the IC50, a sigmoidal curve was fitted to the plot of % inhibition versus Log10 compound concentration.

SMILES	IC50 [1] [nM]	IC50 [2] [nM]
CN1CC[C@@](O)(c2cc(-c3cccc(-c4ccc5[nH]nc(N)c5n4)c3)on2)C1=O [Example 17, (R)-3-(5-(3-(3-Amino-1H-pyrazolo[4,3-b]pyridin-5-yl)phenyl)isoxazol-3-yl)-3-hydroxy-1-methylpyrrolidin-2-one]	< 100	> 501
CN1CC[C@@](O)(c2cc(-c3cccc(-c4cccc(C(N)=O)n4)c3)on2)C1=O [Example 18, (R)-6-(3-(3-(3-Hydroxy-1-methyl-2-oxopyrrolidin-3-yl)isoxazol-5-yl)phenyl)picolinamide]	< 100	> 501
CN1CC[C@@](O)(c2cc(-c3ccnc(N4CCc5ccnc(N)c5C4)c3)no2)C1=O [Example 20, (R)-3-(3-(2-(8-Amino-3,4-dihydro-2,7-naphthyridin-2(1H)-yl)pyridin-4-yl)isoxazol-5-yl)-3-hydroxy-1-methylpyrrolidin-2-one]	100 to 500	> 501
COc1cc(C(N)=O)nc(-c2cc(-c3cc([C@]4(O)CCN(C)C4=O)on3)ccn2)c1 [Example 21, (R)-4′-(5-(3-Hydroxy-1-methyl-2-oxopyrrolidin-3-yl)isoxazol-3-yl)-4-methoxy-[2,2′-bipyridine]-6-carboxamide]	< 100	> 501
CN1CC[C@@](O)(c2cc(-c3ccnc(-n4nc(C(N)=O)c5ccccc54)c3)no2)C1=O [Example 22, (R)-1-(4-(5-(3-Hydroxy-1-methyl-2-oxopyrrolidin-3-yl)isoxazol-3-yl)pyridin-2-yl)-1H-indazole-3-carboxamide]	< 100	< 100
CN1CC[C@@](O)(c2cc(-c3cccc(-c4nc(C(N)=O)n5ccccc45)c3)no2)C1=O [Example 23, (R)-1-(3-(5-(3-Hydroxy-1-methyl-2-oxopyrrolidin-3-yl)isoxazol-3-yl)phenyl)imidazo[1,5-a]pyridine-3-carboxamide]	< 100	< 100
CN1CC[C@@](O)(c2cc(-c3cccc(-c4c[nH]c5ncccc45)c3)no2)C1=O [Example 24, (R)-3-(3-(3-(1H-Pyrrolo[2,3-b]pyridin-3-yl)phenyl)isoxazol-5-yl)-3-hydroxy-1-methylpyrrolidin-2-one]	100 to 500	> 501
Cc1ncnc2ccc(-c3cccc(-c4cc([C@]5(O)CCN(C)C5=O)on4)c3)nc12 [Example 25, (R)-3-Hydroxy-1-methyl-3-(3-(3-(4-methylpyrido[3,2-d]pyrimidin-6-yl)phenyl)isoxazol-5-yl)pyrrolidin-2-one]	100 to 500	> 501
Cc1cc(-c2cccc(-c3cc([C@]4(O)CCN(C)C4=O)on3)c2)nc2c(N)ncnc12 [Example 26, (R)-3-(3-(3-(4-Amino-8-methylpyrido[3,2-d]pyrimidin-6-yl)phenyl)isoxazol-5-yl)-3-hydroxy-1-methylpyrrolidin-2-one]	< 100	< 100
Cc1cc(-c2cccc(-c3cc([C@@]4(O)CCN(C)C4=O)on3)c2)nc2c(N)ncnc12 [Example 27, (S)-3-(3-(3-(4-Amino-8-methylpyrido[3,2-d]pyrimidin-6-yl)phenyl)isoxazol-5-yl)-3-hydroxy-1-methylpyrrolidin-2-one]	> 501	> 501
[2H]c1nc(N)c2nc(-c3cccc(-n4cc([C@]5(O)CCN(C)C5=O)nn4)c3)ccc2n1 [Example 35, (R)-3-(1-(3-(4-Aminopyrido[3,2-d]pyrimidin-6-yl-2-d)phenyl)-1H-1,2,3-triazol-4-yl)-3-hydroxy-1-methylpyrrolidin-2-one]	< 100	> 501
[2H]c1nc(N)c2nc(-c3cccc(-n4cc([C@@]5(O)CCN(C)C5=O)nn4)c3)ccc2n1 [Example 36, (S)-3-(1-(3-(4-Aminopyrido[3,2-d]pyrimidin-6-yl-2-d)phenyl)-1H-1,2,3-triazol-4-yl)-3-hydroxy-1-methylpyrrolidin-2-one]	100 to 500	> 501
CN1CC[C@](O)(c2cn(-c3cccc(-c4cccc(C(N)=O)n4)c3)nn2)C1=O [Example 42, (S)-6-(3-(4-(3-Hydroxy-1-methyl-2-oxopyrrolidin-3-yl)-1H-1,2,3-triazol-1-yl)phenyl)picolinamide]	> 501	> 501
Cc1cc(-c2cccc(-c3cc([C@]4(O)CCN(C)C4=O)on3)c2)nc(C(N)=O)c1N [Example 45, (R)-3-Amino-6-(3-(5-(3-hydroxy-1-methyl-2-oxopyrrolidin-3-yl)isoxazol-3-yl)phenyl)-4-methylpicolinamide]	< 100	< 100
COc1cc(-c2cccc(-c3cc([C@]4(O)CCN(C)C4=O)on3)c2)nc(C(N)=O)c1N [Example 46, (R)-3-Amino-6-(3-(5-(3-hydroxy-1-methyl-2-oxopyrrolidin-3-yl)isoxazol-3-yl)phenyl)-4-methoxypicolinamide]	< 100	< 100
COc1cc(-c2cccc(-c3cc([C@]4(O)CCN(C)C4=O)on3)c2)cc(C(N)=O)n1 [Example 47, (R)-4-(3-(5-(3-Hydroxy-1-methyl-2-oxopyrrolidin-3-yl)isoxazol-3-yl)phenyl)-6-methoxypicolinamide]	> 501	> 501
COc1cc(-c2cccc(-c3cc([C@]4(O)CCN(C)C4=O)on3)c2)nc2c1cnn2C [Example 48, (R)-3-Hydroxy-3-(3-(3-(4-methoxy-1-methyl-1H-pyrazolo[3,4-b]pyridin-6-yl)phenyl)isoxazol-5-yl)-1-methylpyrrolidin-2-one]	< 100	> 501
CN1CC[C@@](O)(c2cc(-c3cccc(-c4ccnc5[nH]ccc45)c3)no2)C1=O [Example 49, (R)-3-(3-(3-(1H-Pyrrolo[2,3-b]pyridin-4-yl)phenyl)isoxazol-5-yl)-3-hydroxy-1-methylpyrrolidin-2-one]	< 100	> 501
CN1CC[C@@](O)(c2cc(-c3cccc(-c4cc(C(F)(F)F)c(N)c(C(N)=O)n4)c3)no2)C1=O [Example 50, (R)-3-Amino-6-(3-(5-(3-hydroxy-1-methyl-2-oxopyrrolidin-3-yl)isoxazol-3-yl)phenyl)-4-(trifluoromethyl)picolinamide]	< 100	< 100
CN1CC[C@@](O)(c2cc(-c3cccc(-c4ccc5cncn5c4)c3)no2)C1=O [Example 51, (R)-3-Hydroxy-3-(3-(3-(imidazo[1,5-a]pyridin-6-yl)phenyl)isoxazol-5-yl)-1-methylpyrrolidin-2-one]	100 to 500	> 501
CN1CC[C@@](O)(c2cc(-c3cccc(-c4ncnn5cccc45)c3)no2)C1=O [Example 52, (R)-3-Hydroxy-1-methyl-3-(3-(3-(pyrrolo[2,1-f][1,2,4]triazin-4-yl)phenyl)isoxazol-5-yl)pyrrolidin-2-one]	100 to 500	> 501
CN1CC[C@@](O)(c2cc(-c3cccc(-c4ccnc(N)c4)c3)no2)C1=O [Example 53, (R)-3-(3-(3-(2-Aminopyridin-4-yl)phenyl)isoxazol-5-yl)-3-hydroxy-1-methylpyrrolidin-2-one]	100 to 500	> 501
CC(=O)Nc1cc(-c2cccc(-c3cc([C@]4(O)CCN(C)C4=O)on3)c2)ccn1 [Example 54, (R)—N-(4-(3-(5-(3-Hydroxy-1-methyl-2-oxopyrrolidin-3-yl)isoxazol-3-yl)phenyl)pyridin-2-yl)acetamide]	100 to 500	> 501
